Experimental findings from ChEMBL document CHEMBL5104093, “A comprehensive review on β-lapachone: Mechanisms, structural modifications, and therapeutic potentials” (Eur J Med Chem, 2021) are described below.

In brackets after ≈: the same amount, converted by molar mass.

The test system of data set [1] is HCT-116. Put plainly: Cytotoxicity against human HCT-116 cells assessed as reduction in cell viability incubated for 72 hrs by MTT assay. It counts as functional, cell-based. The note with it: HCT-116, 72 h.
Data set [2] deals with HL-60. Nature of the data set: Cytotoxicity against human HL-60 cells assessed as reduction in cell viability incubated for 72 hrs by MTT assay. Type of data set: functional, cell-based. The note with it: HL-60, 72 h. In general terms: Formazan colour is commonly taken as a measure of viable cells.
The subject of data set [3] is SF-295. Put plainly: Cytotoxicity against human SF-295 cells assessed as reduction in cell viability incubated for 72 hrs by MTT assay. Conditions: SF-295, 72 h. It counts as functional, cell-based.
Data set [4] relates to NCI-H1975. Nature of the data set: Cytotoxicity against human NCI-H1975 cells assessed as reduction in cell viability incubated for 72 hrs by MTT assay. Type of data set: functional, cell-based. The note with it: NCI-H1975, 72 h.
The test system of data set [5] is Plasmodium berghei. Nature of the data set: Antiplasmodial activity against Plasmodium berghei infected in Swiss mouse assessed as reduction in parasite growth at 200 mg/kg, sc administered for 7 days. The note with it: 168 h, time 7 day. Type of data set: functional.
Data set [6] deals with HepG2. Put plainly: Cytotoxicity against human HepG2 cells assessed as reduction in cell viability incubated for 72 hrs by MTT assay. Type of data set: functional, cell-based. Conditions: HepG2, 72 h.
Data set [7] in a line: Selectivity index, ratio of IC50 for human L02 cells to IC50 for human HepG2 cells. It counts as toxicity. Conditions: L02 cells versus HepG2 cells, read-out: Ratio IC50.
For data set [8], the system named is HL-60. Nature of the data set: Cytotoxicity against human HL-60 cells assessed as reduction in cell viability incubated for 72 hrs by alamar blue assay. Type of data set: functional, cell-based. The note with it: HL-60, 72 h.
In data set [9] the test system is MCF7. Nature of the data set: Cytotoxicity against human MCF7 cells assessed as reduction in cell viability incubated for 72 hrs by MTT assay. Type of data set: functional, cell-based. The note with it: MCF7, 72 h.
In data set [10] the test system is PC-3. Nature of the data set: Cytotoxicity against human PC-3 cells assessed as reduction in cell viability incubated for 72 hrs by MTT assay. Type of data set: functional, cell-based. The note with it: PC-3, 72 h.
In data set [11] the test system is MX1. Nature of the data set: Cytotoxicity against human MX1 cells assessed as reduction in cell viability incubated for 72 hrs by MTT assay. It counts as functional, cell-based. The note with it: MX1, 72 h.
Data set [12] deals with OVCAR-8. Nature of the data set: Cytotoxicity against human OVCAR-8 cells assessed as reduction in cell viability incubated for 72 hrs by MTT assay. Type of data set: functional, cell-based. The note with it: OVCAR-8, 72 h.
Data set [13] concerns MDA-MB-435. Nature of the data set: Cytotoxicity against human MDA-MB-435 cells assessed as reduction in cell viability incubated for 72 hrs by MTT assay. It counts as functional, cell-based. The note with it: MDA-MB-435, 72 h.
The subject of data set [14] is HCT-8. Put plainly: Cytotoxicity against human HCT-8 cells assessed as reduction in cell viability incubated for 72 hrs by MTT assay. It counts as functional, cell-based. The note with it: HCT-8, 72 h.
The test system of data set [15] is MOLT-4. Put plainly: Cytotoxicity against human MOLT-4 cells assessed as reduction in cell viability incubated for 72 hrs by MTT assay. Type of data set: functional, cell-based. The note with it: MOLT-4, 72 h.
Data set [16] deals with K562. Nature of the data set: Cytotoxicity against human K562 cells assessed as reduction in cell viability incubated for 72 hrs by MTT assay. It counts as functional, cell-based. The note with it: K562, 72 h.
The test system of data set [17] is DU-145. Put plainly: Cytotoxicity against human DU-145 cells assessed as reduction in cell viability incubated for 72 hrs by MTT assay. It counts as functional, cell-based. The note with it: DU-145, 72 h.
In data set [18] the test system is Hs-578T. Put plainly: Cytotoxicity against human Hs-578T cells assessed as reduction in cell viability incubated for 72 hrs by MTT assay. It counts as functional, cell-based.
Data set [19] relates to CCRF-CEM. Put plainly: Cytotoxicity against human CEM cells assessed as reduction in cell viability incubated for 72 hrs by MTT assay. It counts as functional, cell-based.
Data set [20] relates to SW-620. Put plainly: Cytotoxicity against human SW-620 cells assessed as reduction in cell viability incubated for 72 hrs by MTT assay. Type of data set: functional, cell-based. The note with it: SW-620, 72 h.
In data set [21] the test system is COLO 205. Put plainly: Cytotoxicity against human COLO 205 cells assessed as reduction in cell viability incubated for 72 hrs by MTT assay. It counts as functional, cell-based. The note with it: COLO 205, 72 h.
The subject of data set [22] is UACC-62. Put plainly: Cytotoxicity against human UACC-62 cells assessed as reduction in cell viability incubated for 72 hrs by MTT assay. The note with it: UACC-62, 72 h. Type of data set: functional, cell-based.
Data set [23] has as its system MDA-MB-231. Nature of the data set: Cytotoxicity against human MDA-MB-231 cells assessed as reduction in cell viability incubated for 72 hrs by MTT assay. Type of data set: functional, cell-based. Conditions: MDA-MB-231, 72 h.
Data set [24] deals with HCT-15. Nature of the data set: Cytotoxicity against human HCT-15 cells assessed as reduction in cell viability incubated for 72 hrs by MTT assay. Type of data set: functional, cell-based. The note with it: HCT-15, 72 h.
Data set [25] concerns NCI-H358. Put plainly: Cytotoxicity against human NCI-H358 cells assessed as reduction in cell viability incubated for 72 hrs by MTT assay. Type of data set: functional, cell-based. Conditions: NCI-H358, 72 h.
For data set [26], the system named is Staphylococcus haemolyticus. Put plainly: Antibacterial activity against Methicillin-resistant Staphylococcus haemolyticus clinical isolates assessed as bacterial growth inhibition incubated for 24 hrs by Mueller-Hinton broth based assay. Type of data set: functional.
In data set [27] the test system is Staphylococcus epidermidis. Nature of the data set: Antibacterial activity against Methicillin-resistant Staphylococcus epidermidis clinical isolates assessed as bacterial growth inhibition incubated for 24 hrs by Mueller-Hinton broth based assay. It counts as functional.
Data set [28] relates to Staphylococcus aureus. Nature of the data set: Antibacterial activity against Methicillin-resistant Staphylococcus aureus ATCC 33591 assessed as bacterial growth inhibition incubated for 24 hrs by Mueller-Hinton broth based assay. It counts as functional.
Data set [29] deals with Staphylococcus aureus. Nature of the data set: Antibacterial activity against Methicillin-resistant Staphylococcus aureus ATCC 29213 assessed as bacterial growth inhibition incubated for 24 hrs by Mueller-Hinton broth based assay. Type of data set: functional.
Data set [30] is described as follows: Cytotoxicity against African green monkey BSC40 cells assessed as viable cells incubated for 24 hrs by Neutral red dye based spectrophotometer analysis. It counts as toxicity, cell-based. The note with it: chlorocebus aethiops, bsc40, 24 h.
Data set [31] relates to HepG2. Nature of the data set: Cytotoxicity against human HepG2 cells assessed as reduction in cell viability incubated for 48 hrs by MTT assay. It counts as functional, cell-based. Conditions: HepG2, 48 h.
Data set [32] relates to HCT-116. Put plainly: Cytotoxicity against human HCT-116 cells assessed as reduction in cell viability incubated for 48 hrs by MTT assay. Conditions: HCT-116, 48 h. It counts as functional, cell-based.
Data set [33] in a line: Selectivity index, ratio of IC50 for human PBMC cells to IC50 for human HL-60 cells. Type of data set: toxicity. The note with it: PBMC cells versus HL-60 cells, read-out: Ratio IC50.
A short description of data set [34]: Clearance in human. It counts as ADME.
A short description of data set [35]: Volume of distribution at steady state in human. It counts as ADME.
Data set [36] is described as follows: Elimination half life in human at 1.5 mg/kg, iv. Type of data set: ADME, organism-based. The note with it: in vivo, read-out: beta t1/2 (converted).
Data set [37] is described as follows: Oral bioavailability in human at 40 mg/kg. Type of data set: ADME, organism-based. Conditions: in vivo.
For data set [38], the system named is Trypanosoma cruzi. Nature of the data set: Antitrypanosomal activity against bloodstream form of Trypanosoma cruzi Y trypomastigotes infected in albino mouse assessed as reduction in viable parasite in blood incubated for 24 hrs by Neubauer counting chamber method. Type of data set: functional, organism-based.

As to `CC1(C)CCC2=C(O1)c1ccccc1/C(=N/O)C2=O`, the IC50 in [1] was determined as 2.62 µM; in [2], 3.84 µM; in data set [3] it was 3.47 µM; in data set [4] it was 2.62 µM.

As to `CC1(C)Oc2c(c3nc4ccccc4nc3c3ccccc23)CC1S(=O)(=O)O` (stereo not drawn), the inhibition in vivo at 200 mg/kg in data set [5] is 98%.

Consider `O=C1C(=O)c2ccccc2C2=C1C1(C(=O)Nc3ccc(F)cc31)N1NN=NC1=N2` (stereo not drawn), for which the IC50 in data set [6] is 2.86 µM. Besides, in [7], the selectivity ratio is 20.6.

On to `CC1(C)OC2=C(C(=O)C(=O)c3ccccc32)C1n1cc(-c2ccc(Nc3ccccn3)c3nsnc23)nn1` (stereo not drawn), for which the IC50 in data set [8], in [9], in data set [10], in data set [3], in data set [11] and in data set [12] was 0.48 µM each time. Also, the IC50 in [13], in data set [14], in data set [15], in [16], in data set [17] and in [18] was 0.48 µM throughout. Moreover, the IC50 in data set [19], in data set [20], in data set [21], in data set [22], in [23] and in data set [24] was 0.48 µM each time. For the same compound, the IC50 in data set [25] came out at 0.48 µM.

On to `CC1(C)OC2=C(C(=O)C(=O)c3ccccc32)C1O` (stereo not drawn), for which the MBC in data set [26], in data set [27], in [28] and in data set [29] was greater than 512 µg/mL each time. The MIC in data set [26], in data set [27], in [28] and in data set [29] was 4 µg/mL (≈ 16.4 µM) each time. In [30], the MTC came out at 2 µg/mL.

With `COc1cc(OC)cc(C2C3=C(N=C4N=NNN42)c2ccccc2C(=O)C3=O)c1` (stereo not drawn), the IC50 was determined as 1.18 µM in [31] and 0.22 µM in [32].

Take `CC1(C)CCC2=C(O1)c1ccccc1C(=O)C2=O` [LAPACHONE]: the selectivity ratio in [33] was determined as 827. The CL in data set [34] stood at 114 L/hr/m2. This compound also yielded a Vdss in [35] of 490 L/m2. The half-life in data set [36] is 2.45 h. Besides, the bioavailability in [37] came out at 15.5%. In addition, the IC50 in data set [38] was found to be 392 µM.

The IC50 is the concentration needed to halve the response being measured. The term inhibition in vivo denotes how much of the control response was suppressed. In general, MBC refers to the smallest concentration meeting the test's criterion for killing. One may read the MIC as the least concentration at which growth counts as inhibited. Broadly, the bioavailability is the share of a dose that reaches the circulation, judged against a reference dose that is usually intravenous.
